{"source": "ChEMBL document CHEMBL1146762", "about": "“Structure-activity relationships of trans-cinnamic acid derivatives on alpha-glucosidase inhibition” (Bioorg Med Chem Lett, 2004)"}
{"test": "Inhibition of alpha-glucosidase activity", "parameters": "species or system Saccharomyces cerevisiae", "units": {"IC50": "µM"}}
{"molecule": "O=C(O)/C=C/c1ccc(Cl)cc1", "IC50": 390}
{"molecule": "COc1cccc(/C=C/C(=O)O)c1", "IC50": 580}
{"molecule": "CCCCOc1ccc(/C=C/C(=O)O)cc1", "IC50": "> 5000"}
{"molecule": "O=C(O)/C=C/c1ccc(OCc2ccccc2)cc1", "IC50": "> 5000"}
{"molecule": "O=C(O)/C=C/c1ccc(Oc2ccccc2)cc1", "IC50": 440}
{"molecule": "O=C(O)/C=C/c1ccc(Br)cc1", "IC50": "> 5000"}
{"molecule": "O=C(O)/C=C/c1cccc(O)c1", "IC50": 1270}
{"molecule": "CCCCCCOc1ccc(/C=C/C(=O)O)cc1", "IC50": "> 5000"}
{"molecule": "O=C(O)/C=C/c1ccc([N+](=O)[O-])cc1", "IC50": "> 5000"}
{"molecule": "O=C(O)/C=C/c1ccc(F)cc1", "IC50": 270}
{"molecule": "CCOC(=O)/C=C/c1ccc(OC)cc1", "note": "[4-METHOXY ETHYL CINNAMATE]", "IC50": 50}
{"molecule": "COc1ccc(/C=C/C(=O)O)cc1", "note": "[4-METHOXYCINNAMIC ACID]", "IC50": 40}
{"molecule": "O=C(O)/C=C/c1ccccc1", "note": "[CINNAMIC ACID]", "IC50": "> 5000"}
{"molecule": "O=C(O)/C=C/c1ccc(O)cc1", "note": "[COUMARIC ACID]", "IC50": 200}
{"molecule": "COc1ccccc1/C=C/C(=O)O", "note": "[COUMARINIC ACID METHYL ETHER]", "IC50": 4340}
{"molecule": "OC[C@H]1NC[C@H](O)[C@@H](O)[C@@H]1O", "note": "[DUVOGLUSTAT]", "IC50": 5600}
{"molecule": "CCOC(=O)/C=C/c1ccccc1", "note": "[ETHYL CINNAMATE]", "IC50": "> 5000"}
{"molecule": "O=C(O)/C=C/c1ccccc1O", "note": "[O-COUMARIC ACID]", "IC50": "> 5000"}
